Assay results reported in ChEMBL document CHEMBL5046222, “Multifunctional Arylsulfone and Arylsulfonamide-Based Ligands with Prominent Mood-Modulating Activity and Benign Safety Profile, Targeting Neuropsychiatric Symptoms of Dementia” (J Med Chem, 2021).

Assays:
[1] = target: 5-hydroxytryptamine receptor 6 (Homo sapiens) (UniProt P50406); details: CHO-K1, filed as antagonist, time 1.0 hrs
Rattus norvegicus [2] = species: Rattus norvegicus; details: in vivo, ip, 10 min
Rattus norvegicus [3] = species: Rattus norvegicus; experiment: animal or person; details: Wistar, ip, read-out: MED

Sequence of 5-hydroxytryptamine receptor 6 (Homo sapiens) (P50406 whole entry): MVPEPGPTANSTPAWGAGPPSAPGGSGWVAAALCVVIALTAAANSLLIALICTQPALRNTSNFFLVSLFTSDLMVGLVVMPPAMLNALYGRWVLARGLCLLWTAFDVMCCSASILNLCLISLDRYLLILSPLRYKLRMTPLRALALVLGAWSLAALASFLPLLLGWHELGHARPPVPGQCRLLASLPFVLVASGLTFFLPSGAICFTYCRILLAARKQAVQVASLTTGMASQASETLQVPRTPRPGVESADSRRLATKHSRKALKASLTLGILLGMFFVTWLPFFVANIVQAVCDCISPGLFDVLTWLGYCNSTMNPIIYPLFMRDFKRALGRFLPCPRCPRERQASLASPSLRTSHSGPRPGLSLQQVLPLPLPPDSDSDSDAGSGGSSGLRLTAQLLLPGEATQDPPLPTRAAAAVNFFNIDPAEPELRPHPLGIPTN

Row | Structure (SMILES) | pKb [1] | MED (Rattus norvegicus [2]) | minimal effective dose (Rattus norvegicus [3])
1 | O=S(=O)(c1ccccc1)c1cnc2c(N3CCNCC3)cccc2c1 | 9.47 | – | –
2 | O=C1CC2(CCCC2)CC(=O)N1CCCCN1CCN(c2ncccn2)CC1 [BUSPIRONE] | – | 1 mg/kg | –
3 | CN1C(=O)CN=C(c2ccccc2)c2cc(Cl)ccc21 [DIAZEPAM] | – | 3 mg/kg | –
4 | CN(C)CCCN1c2ccccc2CCc2ccccc21 [IMIPRAMINE] | – | 10 mg/kg | –
5 | CC(C)COc1ccc(CNC(=O)N(Cc2ccc(F)cc2)C2CCN(C)CC2)cc1 [PIMAVANSERIN] | – | 0.1 mg/kg | 0.1 mg/kg
